# Source: ChEMBL document CHEMBL1201862, “PubChem BioAssay data set” (2004)
# The source made the active and inactive calls.
# Tests used:
# [1] = biological target: T1, Corticotropin-releasing factor receptor 2/Corticotropin-releasing factor-binding protein (Homo sapiens, UniProt P24387+Q13324); experiment: Dose Response confirmation of uHTS hits for small molecule antagonists of the CRF-binding protein and CRF-R2 receptor complex.; type: functional; conditions: read-out: IC50_Mean
# T1 sequence (Q13324 whole entry): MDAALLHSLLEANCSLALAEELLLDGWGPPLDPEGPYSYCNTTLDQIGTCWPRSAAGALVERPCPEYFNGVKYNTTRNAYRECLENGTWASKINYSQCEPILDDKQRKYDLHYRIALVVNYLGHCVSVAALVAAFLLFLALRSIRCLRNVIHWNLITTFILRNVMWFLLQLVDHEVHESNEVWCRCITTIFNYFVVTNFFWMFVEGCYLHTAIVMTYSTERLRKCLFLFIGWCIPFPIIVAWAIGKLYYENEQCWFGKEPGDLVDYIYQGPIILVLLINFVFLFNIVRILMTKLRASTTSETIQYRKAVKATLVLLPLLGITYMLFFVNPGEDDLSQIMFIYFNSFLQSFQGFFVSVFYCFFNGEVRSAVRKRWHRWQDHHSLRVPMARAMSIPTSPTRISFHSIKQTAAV
# T1 sequence (P24387 whole entry): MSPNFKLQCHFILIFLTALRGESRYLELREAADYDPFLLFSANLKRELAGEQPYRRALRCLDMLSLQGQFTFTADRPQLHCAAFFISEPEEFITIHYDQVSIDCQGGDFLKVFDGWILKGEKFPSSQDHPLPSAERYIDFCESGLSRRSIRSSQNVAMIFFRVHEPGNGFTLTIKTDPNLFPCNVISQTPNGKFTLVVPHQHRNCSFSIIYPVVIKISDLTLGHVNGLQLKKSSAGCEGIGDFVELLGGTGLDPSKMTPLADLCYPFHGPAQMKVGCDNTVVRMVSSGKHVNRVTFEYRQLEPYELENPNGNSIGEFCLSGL
# [2] = biological target: T1, Corticotropin-releasing factor receptor 2/Corticotropin-releasing factor-binding protein; experiment: activators of CRF receptor 2 with binding protein – uHTS hits, confirmation (AID 602473); type: functional; conditions: read-out: EC50_Mean
# [3] = biological target: T2, Heat shock factor protein 1 (Mus musculus, UniProt P38532); experiment: enhancement of HSF1-driven luciferase signal – cell-based, NIH3T3, luminescence, dose retest, confirmation (AID 435004); type: functional;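 further: stress induced by proteasome inhibitor MG132 added 30 min after compound; luciferase reporter driven by HSF1 response element in NIH3T3 cells; actives raise luminescence as potentiators of the MG132 stress response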
# T2 sequence (P38532 whole entry): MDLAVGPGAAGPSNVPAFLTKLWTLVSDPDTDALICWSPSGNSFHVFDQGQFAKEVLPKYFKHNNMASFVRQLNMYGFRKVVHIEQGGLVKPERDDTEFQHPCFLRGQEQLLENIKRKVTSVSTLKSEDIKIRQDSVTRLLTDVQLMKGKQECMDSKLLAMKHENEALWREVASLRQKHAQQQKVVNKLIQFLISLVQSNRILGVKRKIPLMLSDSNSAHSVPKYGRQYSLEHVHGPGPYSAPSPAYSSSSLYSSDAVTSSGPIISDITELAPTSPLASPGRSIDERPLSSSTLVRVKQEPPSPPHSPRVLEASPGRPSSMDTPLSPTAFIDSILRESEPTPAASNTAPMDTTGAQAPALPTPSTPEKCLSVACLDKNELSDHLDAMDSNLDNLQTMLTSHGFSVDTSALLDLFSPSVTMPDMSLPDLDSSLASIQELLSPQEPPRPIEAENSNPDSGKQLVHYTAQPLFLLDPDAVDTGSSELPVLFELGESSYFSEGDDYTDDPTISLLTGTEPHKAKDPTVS
# [4] = THP-1 cell cytotoxicity, dose response, cytotoxicity control for non-replicating M. tuberculosis project (AID 489025); type: functional
# [5] = system: Vero; experiment: cells; type: functional; conditions: Chlorocebus sabaeus
# [6] = biological target: FAD-linked sulfhydryl oxidase ALR (Homo sapiens, UniProt P55789); experiment: ALR-catalysed DTT oxidation blockers – biochemical, H2O2 detection, luminescence, cherry-pick, dose response (AID 493248)
# Chain of FAD-linked sulfhydryl oxidase ALR (P55789 whole entry): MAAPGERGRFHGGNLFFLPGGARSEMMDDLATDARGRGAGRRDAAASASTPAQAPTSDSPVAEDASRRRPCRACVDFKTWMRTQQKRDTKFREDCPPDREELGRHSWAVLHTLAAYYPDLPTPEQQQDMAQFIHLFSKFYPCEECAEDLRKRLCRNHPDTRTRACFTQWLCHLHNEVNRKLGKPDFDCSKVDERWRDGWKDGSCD
# [7] = NIH-3T3 fibroblast cytotoxicity, dose response, cytotoxicity control, cell-based, fluorescence, Alamar Blue, secondary assay (AID 2327); type: functional;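 further: NIH-3T3 mouse fibroblasts cultured with fluconazole at 8 µg/mL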
# [8] = biological target: T3, Rac GTPase-activating protein 1 (Homo sapiens, UniProt Q9H0H5); experiment: blockers of MgcRacGAP-driven Rac1 GTP hydrolysis – biochemical, ADP Hunter fluorescence, primary and confirmatory, confirmation (AID 624330); type: functional
# T3 sequence (Q9H0H5 whole entry): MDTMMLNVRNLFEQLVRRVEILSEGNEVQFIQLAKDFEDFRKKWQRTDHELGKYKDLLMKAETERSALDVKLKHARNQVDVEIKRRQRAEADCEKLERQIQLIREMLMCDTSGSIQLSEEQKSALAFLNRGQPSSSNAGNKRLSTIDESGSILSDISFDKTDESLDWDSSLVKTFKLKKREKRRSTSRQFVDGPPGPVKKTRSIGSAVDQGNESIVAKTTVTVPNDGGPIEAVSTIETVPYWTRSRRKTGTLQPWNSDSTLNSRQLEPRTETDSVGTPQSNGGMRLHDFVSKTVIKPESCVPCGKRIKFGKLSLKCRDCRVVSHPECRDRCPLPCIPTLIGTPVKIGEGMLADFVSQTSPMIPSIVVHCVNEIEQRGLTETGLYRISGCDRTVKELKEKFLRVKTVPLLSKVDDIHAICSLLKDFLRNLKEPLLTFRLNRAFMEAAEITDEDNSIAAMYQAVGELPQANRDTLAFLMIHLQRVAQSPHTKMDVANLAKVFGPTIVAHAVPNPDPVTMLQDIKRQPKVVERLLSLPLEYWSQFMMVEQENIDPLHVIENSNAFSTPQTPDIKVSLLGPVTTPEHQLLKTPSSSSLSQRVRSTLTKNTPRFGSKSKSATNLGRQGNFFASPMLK
# [9] = viability of HCT116 lacking mutant beta-catenin – cell-based, human colon tumor, dose response (AID 1045); type: functional;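 further: HCT116 colon tumor cells with beta catenin knocked out; cells exposed to compound for 60 hours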
# [10] = system: Streptococcus; experiment: GAS UMAA2166 growth inhibition – luminescence, BacTiterGlo, counter-screen for streptokinase expression inhibitor project, dose response (AID 1915); type: functional, organism-based;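 further: potency for reduction of bacterial viability or growth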
# [11] = Luminescence Cell-Based Dose Retest to Confirm Inhibitors of Cancer Stem Cells. [Related pubchem assays (depositor defined):AID2717, AID2721]; type: functional; conditions: Homo sapiens
# [12] = system: Streptococcus sp. 'group A'; experiment: Streptococcus pyogenes SK(-)GAS viability under kanamycin – luminescence, BacTiterGlo, confirmation, counter-screen for streptokinase expression inhibitor project, dose response (AID 1900); type: functional, organism-based
# [13] = biological target: T4, Ubiquitin-conjugating enzyme E2 N (Homo sapiens, UniProt P61088); type: functional;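 further: Dose-response confirmation in a TR-FRET assay detecting UBC13-driven polyubiquitin chain formation, inhibition measured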
# T4 sequence (P61088 whole entry): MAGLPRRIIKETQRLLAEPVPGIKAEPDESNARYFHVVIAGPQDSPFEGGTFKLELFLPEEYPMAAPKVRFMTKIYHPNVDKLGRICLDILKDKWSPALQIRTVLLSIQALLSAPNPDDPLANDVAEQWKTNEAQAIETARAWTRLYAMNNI
# [14] = viability of PTEN-deleted HCT116 cells – cell-based, HCT116 PTEN knockout, dose response (AID 1047); type: functional;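 further: HCT116 colon tumor cells with PTEN knocked out; cells exposed to compound for 60 hours before readout; potency for loss of cell viability measured by luminescence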
# [15] = biological target: T5, Streptokinase A (Streptococcus pyogenes serotype M1, UniProt P10520); experiment: viability-normalized secreted streptokinase activity reduction – plasminogen activation absorbance, OD405, dose response (AID 1914); type: functional, Streptococcus pyogenes M1 GAS;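 further: secreted streptokinase activity via plasminogen activation per viability signal from cell pellet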
# T5 sequence (P10520 whole entry): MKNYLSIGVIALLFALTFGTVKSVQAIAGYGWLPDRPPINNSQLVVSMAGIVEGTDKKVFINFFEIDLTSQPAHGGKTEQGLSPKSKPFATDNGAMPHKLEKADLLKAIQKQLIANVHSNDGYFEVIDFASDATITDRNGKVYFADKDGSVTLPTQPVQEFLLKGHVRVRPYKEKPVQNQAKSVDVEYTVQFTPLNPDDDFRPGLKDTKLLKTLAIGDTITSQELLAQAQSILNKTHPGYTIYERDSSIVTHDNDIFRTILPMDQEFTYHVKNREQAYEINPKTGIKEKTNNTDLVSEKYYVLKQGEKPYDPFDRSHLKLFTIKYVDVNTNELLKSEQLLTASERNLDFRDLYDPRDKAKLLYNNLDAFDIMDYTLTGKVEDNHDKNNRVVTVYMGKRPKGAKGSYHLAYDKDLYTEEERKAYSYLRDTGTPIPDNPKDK
# [16] = cells; type: functional
# [17] = Luminescence Cell-Based Dose Response HTS to Identify Activators of Luciferase Translation or Activity in H4 […] Cells. [Related pubchem assays: 1829 (Project Summary), 1814 (Primary HTS)]; type: functional
# [18] = system: H4; experiment: Luminescence Cell-Based Dose Response HTS to Identify Activators of 5'UTR Stem-Loop Driven Prion Protein mRNA Translation in H4 Neuroglioblastoma Cells. [Related pubchem assays: 1829 (Project Summary), 1814 (Primary HTS)]; type: functional; conditions: Homo sapiens
# [19] = NIH3T3 cell viability loss – ATP luminescence, mouse fibroblasts, counter-screen, dose response (AID 2010); type: functional, cell-based;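 further: cells exposed to compound for about 90 hours before reading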
# [20] = Trypanosoma cruzi growth suppression in host cells – NIH3T3 host cells, beta-gal luminescence, confirmation (AID 2044); type: functional, cell-based;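 further: intracellular parasites grown in NIH/3T3 mouse fibroblasts as host cells; luminescent beta-galactosidase reporter signal from transgenic T. cruzi replicating inside host cells; inhibitors lower the luminescence signal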
# [21] = biological target: Cytochrome P450 2D6 (Homo sapiens, UniProt P10635);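 further: CYP2D6 member of a cytochrome P450 panel assay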
# Chain of Cytochrome P450 2D6 (P10635 whole entry): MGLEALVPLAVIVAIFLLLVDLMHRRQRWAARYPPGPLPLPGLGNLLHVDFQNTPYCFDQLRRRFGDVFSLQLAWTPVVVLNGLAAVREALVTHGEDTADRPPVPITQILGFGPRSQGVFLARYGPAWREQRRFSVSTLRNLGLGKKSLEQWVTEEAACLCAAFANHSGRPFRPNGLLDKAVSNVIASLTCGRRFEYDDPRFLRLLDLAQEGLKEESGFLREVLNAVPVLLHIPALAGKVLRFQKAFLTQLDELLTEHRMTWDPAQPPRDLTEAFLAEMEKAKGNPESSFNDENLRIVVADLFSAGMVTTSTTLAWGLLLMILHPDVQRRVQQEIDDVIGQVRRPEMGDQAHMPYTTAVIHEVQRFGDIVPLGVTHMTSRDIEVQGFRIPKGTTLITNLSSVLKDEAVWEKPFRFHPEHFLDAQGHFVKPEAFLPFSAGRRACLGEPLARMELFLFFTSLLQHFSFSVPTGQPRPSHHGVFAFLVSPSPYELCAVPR
smiles,measurement,setting,value
Cc1ccc(CN2CCSc3ccc(C(=O)N4CCN(c5ncccn5)CC4)cc32)cc1,IC50,[1],> 47.1 µM (inactive)
same,EC50,[2],> 53 µM (inactive)
CCOC(=O)c1sc(NC(=O)CCN2CCC(C)CC2)c(C(=O)OCC)c1C,EC50,[3],> 260 µM (inactive)
CC(C)(C)c1csc(NC(=O)c2ccccc2O)n1,CC50,[4],38.7 µM (active)
COc1ccccc1-c1c(NC(=O)C(C)C)n(C)c2ccccc2c1=O,IC50,[1],> 47.1 µM (inactive)
same,EC50,[2],> 53 µM (inactive)
Cc1cccc(C(=O)Oc2ccc(/C=N/NC(=O)c3ccc(O)cc3)cc2)c1,IC50,[1],> 47.1 µM (inactive)
same,EC50,[2],> 53 µM (inactive)
O=C(C[C@H]1C/C=C\C[C@@H](Cc2ccc(F)cc2)C(=O)O[C@H](c2ccccc2)CNC1=O)NCCO,IC50,[1],> 47.1 µM (inactive)
same,EC50,[2],> 53 µM (inactive)
CC1CCN(c2nc3ccc(C(=O)NCCCN4CCCCC4C)cc3s2)CC1 (stereo unspecified),CC50,[5],> 25 µM (active)
Cc1cccc(N2CCN(C(=O)C3CCCN(S(=O)(=O)c4c[nH]cn4)C3)CC2C)c1 (stereo unspecified),AC50,[6],3.55 µM (active)
Nc1ccc(-c2nc3ccccc3[nH]2)cc1,AC50,[6],1.3 µM (active)
Nc1ccc(N2CCN(c3ccc(F)cc3)CC2)cc1,EC50,[7],40.1 µM (active)
same,AC50,[6],0.821 µM (active)
same,IC50,[8],18.2 µM (active)
CN(C)CCNC=C(C(=O)Nc1ccc(Cl)cc1Cl)C(=O)Nc1ccc(Cl)cc1Cl,EC50,[9],26.4 µM (active)
same,CC50,[5],> 25 µM (active)
same,EC50,[10],6.32 µM (active)
same,AC50,[11],6.84 µM (active)
same,EC50,[12],2.71 µM (active)
same,IC50,[13],> 20 µM (inactive)
same,EC50,[14],17.2 µM (active)
same,EC50,[15],> 150 µM (not active)
Cc1cccc(N2CCN(C(=O)C3CCN(S(=O)(=O)c4c(C)noc4C)CC3)CC2C)c1 (stereo unspecified),AC50,[6],10.6 µM (active)
CN(c1ccccc1)c1nc(N)c([N+](=O)[O-])c(N2CCCCCC2)n1,EC50,[3],27.7 µM (active)
CC1(C(=O)OCC(=O)Nc2nnc(-c3ccccc3)o2)CC1(Cl)Cl (stereo unspecified),CC50,[4],> 40 µM (active)
same,IC50,[16],24.9 µM (active)
CC1CCC(NC(=O)Cn2ncc3ccccc32)CC1 (stereo unspecified),EC50,[17],> 120 µM (not active)
same,EC50,[18],> 120 µM (not active)
CC(C)c1ccc(NC2CCCN(C(=O)c3cnsn3)C2)cc1 (stereo unspecified),AC50,[6],4.8 µM (active)
O=C(N/N=C/c1ccncc1)c1cccc(N/N=C/c2ccncc2)c1,AC50,[6],6.02 µM (active)
Cc1ccc(C2(C)CC(C)(C)N(C(=O)CSc3nnc(C)s3)c3ccccc32)cc1 (stereo unspecified),IC50,[1],> 47.1 µM (inactive)
same,EC50,[2],> 53 µM (inactive)
CCn1c(=O)c(=O)[nH]c2cc(C(=O)NC(C)c3ccc(S(N)(=O)=O)cc3)ccc21 (stereo unspecified),AC50,[6],0.407 µM (active)
O=C(CCC(=O)N1CCOc2ccccc21)NC1CCCCCC1,IC50,[1],> 47.1 µM (inactive)
same,EC50,[2],> 53 µM (inactive)
O=C(Cn1cnc([N+](=O)[O-])n1)NCCc1ccccc1,IC50,[1],> 47.1 µM (inactive)
same,EC50,[19],> 60 µM (not active)
same,EC50,[2],> 53 µM (inactive)
same,EC50,[20],0.537 µM (active)
CC(=O)N[C@H]1C[C@@H]1c1ccccc1,IC50,[1],> 47.1 µM (inactive)
same,EC50,[2],> 53 µM (inactive)
Nc1ccc(Sc2cnn(-c3ccccc3)c(=O)c2Cl)cc1,EC50,[3],> 260 µM (inactive)
same,AC50,[21],12.6 µM (inconclusive)
C/N=C1/S/C(=C\c2ccc(OCC(=O)OC)c(OC)c2)C(=O)N1C,CC50,[4],> 40 µM (active)
same,IC50,[16],4.45 µM (active)
COc1ccc(CSc2[nH]c(C)nc2[N+](=O)[O-])cc1[N+](=O)[O-],AC50,[6],0.02 µM (active)
COc1cc(/C=C/C(=O)N2C(=O)c3cccc(N)c3C2=O)cc(OC)c1OC,EC50,[3],2.98 µM (active)
same,CC50,[5],17.8 µM (active)
O=C(CSc1nnc(-c2ccc(F)cc2)c2ccccc12)Nc1ccccc1,EC50,[3],104 µM (active)
